Results taken from paper PMC10673250, “Exploring Alkyl Ester Salts of L-Amino Acid Derivatives of Ibuprofen: Physicochemical Characterization and Transdermal Potential” (Molecules, 2023).
Converted amounts (≈) assume the structure as drawn. “And” between values parts separate entries of the source, which are not always exact repeats. Equal entries are not always repeated. Structures can show the parent of a compound that is named as a salt. Where two headings read alike, the source gives them in different places.

Legend:
[1] = Thermogravimetric analysis (thermal stability); type: physicochemical
Description: Thermal stability was assessed using thermogravimetric studies performed on a […]1 Libra thermomicrobalance (Selb, Germany). The test was carried out in an oxidizing environment, with the flow of nitrogen (protective gas): 10 cm^3·min^-1, air: 25 cm^3·min^-1 in the temperature range from 25 to 1000 °C. Samples weighing approximately 5 mg were heated at 10 °C·min^-1. The decomposition onset temperature (Tonset) was calculated using the intersection of the tangents of the TG curve. The fastest decomposition temperatures (Tmax) were calculated using the first TG curve (DTG curve) derivative.

[2] = Permeability of the active substance through pig skin, Franz diffusion chambers, in vitro; settings: for Jss, steady-state flux: 1% IBU in 70% ethanol, 37 °C; for Jss, steady-state flux / CMP (cumulative permeation mass) / Q%24h, the percentage of the applied dose / LT, lag time: n = 3; for CMP (cumulative permeation mass) / Q%24h, the percentage of the applied dose: 24 h
Description: Tests for the penetration of the active substance through pig skin were performed using Franz diffusion chambers (Phoenix DB-6, ABL&E-JASCO, Vienna, Austria) with diffusion areas of 1 cm^2 according to the modified method [15].
Pig skin obtained from the belly was purchased from a local slaughterhouse. The outer layer, 0.5 mm thick, was then removed using a dermatome and cut into 2 cm × 2 cm pieces. Before use in the study, the skin was soaked in buffered saline (PBS) solution at pH 7.4.
Skin impedance assessment was performed using an LCR meter 4080 (Voltcraft LCR 4080, Conrad Electronic, Hirschau, Germany), which was operated in parallel mode at an alternating frequency of 120 Hz (error for kΩ values < 0.5%). The measurements were made by placing the tips of the measurement probes in the donor and acceptor chambers, separated by a skin sample. Both chambers were filled with PBS buffer pH 7.4. Skin samples with an impedance > 3 kΩ were used for testing, which corresponds to the electrical resistance of human skin [15, 18].
The acceptor chamber with a capacity of 10 cm^3 was filled with PBS solution (pH 7.4). A total of 1 cm^3 of a solution of ibuprofen or L-amino acid alkyl ester ibuprofenate with a concentration of 1% based on the active substance (ibuprofen) in 70% ethanol was placed in the acceptor chamber.
The experiment was conducted for 24 h at 37 °C. After 0.5 h, 1 h, 2 h, 3 h, 4 h, 5 h, 8 h, and 24 h from the start of the permeation experiment, 0.5 cm^3 samples of the acceptor fluid were taken, respectively, and refilled with fresh PBS solution. The content of ibuprofen or its salts in the acceptor liquid was determined by HPLC. Based on this concentration, the cumulative mass expressed as ibuprofen was calculated (µg IBU·cm^−2) [3, 19, 20, 21, 22].
The constant flow coefficient (in µg IBU·cm^−2·h^−1) through the pig skin into the acceptor fluid was determined as the slope of the plot of accumulated mass in the acceptor fluid as a function of time.
Steady-state flow was estimated from the slope of the linear part of the plot of accumulated mass in the acceptor phase over time. The lag time (LT) was determined based on the x-intercept of the linear part of the graph of accumulated mass in the acceptor phase over time. It was then used to calculate the permeability coefficient Kp using Equation (6):(6) Kp=Jss/C where: • C—concentration in the donor phase (µg·cm^−3).
The diffusion coefficient (D) was calculated based on Equation (7):(7) D=I^2/6·LT where: • I—diffusion path, skin thickness (mm).
The skin partition coefficient (Km) was calculated based on Equation (8):(8) Km=Kp·I/D

[3] = Partition coefficient n-octanol/water (shake-flask, HPLC); type: physicochemical; settings: 25 °C
Description: For L-glutamic acid alkyl ester ibuprofenates, the partition coefficient was determined using n-octanol/water extraction. For this purpose, 10 mg of the substance, weighed with an accuracy of 0.01 mg, was mixed with 5 cm^3 of water saturated with n-octanol and 5 cm^3 of n-octanol saturated with water. The mixture was stirred vigorously at 25 °C for 3 h and then centrifuged at 7500 rpm·min^−1 at 25 °C for 10 min to separate the phases. The phases were then separated. The concentration of the compound was determined in the aqueous layer using the HPLC method (standard curve method).
The partition coefficient log P was calculated based on Equation (3):(3) logP=logcoct−logcw where: • cw and coct are the concentrations (mg·dm^−3) of the solute in the aqueous and octanol layers.
The concentration of the compound dissolved in octanol was calculated from Equation (4):(4) coct=c0−cw where: • c0 is the concentration of the compound calculated based on sample weights prepared for analysis.
The concentration of the substance in the aqueous layer was determined using the SHIMADZU Nexera-i LC-2040C 3D High Plus high-performance liquid chromatography method with a DAD/FLD detector. A mixture of 50% acetonitrile and 50% water was used as the moving fluid under isocratic conditions at a 1 cm^3·min^−1 flow rate. A Kinetex® 2.6 µm F5 100 Å column heated to 35 °C with dimensions of 150 × 4.6 mm^2 from Phenomenex was used. The spectra were recorded at a wavelength of 210 nm. The injection volume for these samples was 50 mm^3. Each measurement was performed three times, and the results were averaged. The concentration of ibuprofen and its salts was calculated from peak area measurements using the calibration curve method (Figure 8). The results were analyzed using LabSolutions/LC Solution System.

[4] = Solubility in water (saturated solutions, HPLC); type: physicochemical; settings: water at 25 °C
Description: Water solubility was determined by obtaining saturated solutions of the obtained ibuprofenates. For this purpose, the appropriate amount of ibuprofen salt was weighed in a vial, poured with deionized water, and stirred vigorously on a magnetic stirrer at 25 °C for 24 h. After this time, the mixture was filtered using a syringe filter made of MCE (mixed cellulose esters) with a pore diameter 0.45 µm. Then, the filtrate was diluted one hundred times with acetonitrile: water solution (1:1). The concentration of the compound was determined by the HPLC method described in Section 3.2.9.

[5] = Accumulation in the skin after the permeation test, in vitro; type: in vitro ADME, pig; settings: after 24 h permeation; for accumulation in pig skin: mean ± SD, n = 3
Description: After completing the permeation test, the skin was removed from the Franz chamber, then washed with 0.5% sodium lauryl sulfate solution and dried with a paper towel. After being thoroughly air-dried, the leather was cut into pieces and extracted with 2 cm^3 of methanol for 24 h at 4 °C. Then, the samples were homogenized using a homogenizer (IKA®T18 digital ULTRA TURRAX, Staufen, Germany) for 3 min and centrifuged at 3500 rpm·min^−1 for 5 min. After centrifugation, the solution was analyzed by HPLC. The accumulation of IBU and its salts in pig skin was calculated by dividing the amount of substance remaining in the samples by the weight of the skin sample and it was expressed as the weight of IBU per gram of skin (µg IBU·g^−1).

[6] = administered on an empty stomach, 71 healthy adults; cited from earlier work
[7] = pig skin, concentration 0.01 g·cm^−3; cited from earlier work
[8] = in terms of the active substance (ibuprofen)
[9] = TG, oxidizing environment, 10 °C·min^−1

SMILES	Tonset, the onset temperature of the thermal degradation [1] [°C]	Jss, steady-state flux [2]	CMP (cumulative permeation mass) [2] [g IBU·dm^−3]	Q%24h, the percentage of the applied dose [2] [%]	log P [3]	Solubility in Water ([4]; as compound) [g·dm^−3]	Solubility in Water [4, 8] [g IBU·dm^−3]	Tonset, the onset temperature of the thermal degradation [1, 9] [°C]	other results
CC(C)Cc1ccc(C(C)C(=O)O)cc1.CCCCCOC(=O)C(N)CCC(=O)O (stereo not drawn) [[Glu(OPent)][IBU]]	206.9	57.098 µg IBU·cm^−2·h^−1 and 57.098 ± 29.761 µg IBU·cm^−2·h^−1	0.101 ± 0.012	0.582 ± 0.047	2.459 ± 0.002	0.208 ± 0.024	0.101 ± 0.012	–	accumulation in pig skin [5]: 625.895 ± 87.275 µg IBU·g^−1 pig skin; permeation rate relative to ibuprofen ([2]; within the first two hours): twice as high as ibuprofen
CC(C)Cc1ccc(C(C)C(=O)[O-])cc1.[Na+] (stereo not drawn) [IBUNa]	–	–	–	–	–	–	–	–	Cmax higher compared to rac-IBU [6]: approximately 30%
CC(C)Cc1ccc(C(C)C(=O)O)cc1.CCCCOC(=O)C(N)CCC(=O)O (stereo not drawn) [[Glu(OBu)][IBU]]	206.8	32.282 ± 7.809 µg IBU·cm^−2·h^−1	0.109 ± 0.004	0.452 ± 0.026	3.000 ± 0.010	0.217 ± 0.007	0.109 ± 0.004	–	accumulated mass relative to ibuprofen [5]: approximately 90%; accumulation in pig skin [5]: 931.823 ± 93.449 µg IBU·g^−1 pig skin; LT, lag time [2]: 0.102 ± 0.069 h
CCCCOC(=O)CCC(N)C(=O)OCCCC (stereo not drawn) [[Glu(OBu)2][HCl]]	–	–	–	–	–	–	–	172.8	–
CC(C)Cc1ccc(C(C)C(=O)O)cc1 (racemic) [IBU, (RS)-2-[4-(2-methylpropyl)phenyl]propionic acid, reference compound]	–	26.539 ± 0.320 µg IBU·cm^−2·h^−1	–	0.302 ± 0.038	–	–	0.075 ± 0.001	–	accumulation in pig skin [5]: 1057.468 ± 200.589 µg IBU·g^−1 pig skin; skin penetration rate [7]: 6%; LT, lag time [2]: 0.153 ± 0.029 h; D·10^4, diffusion coefficient ([2]; n = 3, value is D·10^4): 27.926 ± 5.802 cm^2·h^−1; logP [3]: 3.37; solubility at 24 h ([4]; deionized water, as compound): 75 ± 1 µg/mL (≈ 364 µM)
CC(C)Cc1ccc(C(C)C(=O)O)cc1.CCOC(=O)C(N)CCC(=O)O (stereo not drawn) [[Glu(OEt)][IBU]]	194.2	30.855 ± 6.617 µg IBU·cm^−2·h^−1	0.100 ± 0.001	0.566 ± 0.005	2.37 and 2.374 ± 0.001	0.185 ± 0.003	0.100 ± 0.001	–	permeation rate difference compared to [Glu(OPent)][IBU] ([2]; after 24 h): approximately 0.5 μg∙h^−1; LT, lag time [2]: 0.029 ± 0.050 h
CCOC(=O)CCC(N)C(=O)OCC (stereo not drawn) [[Glu(OEt)2][HCl]]	–	–	–	–	–	–	–	168.3	–

The next lines start with results.

Tonset, the onset temperature of the thermal degradation [1] [°C]	Jss, steady-state flux [2]	CMP (cumulative permeation mass) [2] [g IBU·dm^−3]	Q%24h, the percentage of the applied dose [2] [%]	log P [3]	Solubility in Water ([4]; as compound) [g·dm^−3]	Solubility in Water [4, 8] [g IBU·dm^−3]	Tonset, the onset temperature of the thermal degradation [1, 9] [°C]	SMILES	other results
199.7	26.451 ± 2.253 µg IBU·cm^−2·h^−1	0.120 ± 0.004	0.506 ± 0.008	2.380 ± 0.003	0.230 ± 0.007	0.120 ± 0.004	–	CC(C)Cc1ccc(C(C)C(=O)O)cc1.CCCOC(=O)C(N)CCC(=O)O (stereo not drawn) [[Glu(OPr)][IBU]]	–
204.2	22.296 ± 1.398 µg IBU·cm^−2·h^−1	0.093 ± 0.012	0.456 ± 0.048	3.191 ± 0.007	0.185 ± 0.024	0.093 ± 0.012	–	CC(C)Cc1ccc(C(C)C(=O)O)cc1.CCC(C)OC(=O)C(N)CCC(=O)O (stereo not drawn) [[Glu(Osec-Bu)][IBU]]	–
–	–	–	–	–	–	–	181.5	CCC(C)OC(=O)CCC(N)C(=O)OC(C)CC (stereo not drawn) [[Glu(Osec-Bu)2][HCl]]	–
222.9	23.298 ± 3.459 µg IBU·cm^−2·h^−1	–	0.373 ± 0.0175	2.860 ± 0.007	0.390 ± 0.011	0.203 ± 0.006	–	CC(C)Cc1ccc(C(C)C(=O)O)cc1.CC(C)OC(=O)C(N)CCC(=O)O (stereo not drawn) [[Glu(OiPr)][IBU]]	penetrated better than ibuprofen ([2]; versus ibuprofen): ~40%; solubility relative to ibuprofen (standard) ([4]; per active mass of ibuprofen): approximately three times higher
–	–	–	–	–	–	–	169.5	CCCCCOC(=O)CCC(N)C(=O)OCCCCC (stereo not drawn) [[Glu(OPent)2][HCl]]	–
–	–	–	–	–	–	–	174.4	CC(C)OC(=O)CCC(N)C(=O)OC(C)C (stereo not drawn) [[Glu(OiPr)2][HCl]]	–
–	–	–	–	–	–	–	170.5	CCCOC(=O)CCC(N)C(=O)OCCC (stereo not drawn) [[Glu(Opr)2][HCl]]	–
